Source: paper PMC8213057, “Targeting ALK2: An Open Science Approach to Developing Therapeutics for the Treatment of Diffuse Intrinsic Pontine Glioma” (Journal of Medicinal Chemistry, 2020)
Values joined by “and” are separate entries in the source; they are usually repeats but may differ in a detail not shown here. Identical values can stand only once.

Experiments:
[1] = target: T1, MUSK (Homo sapiens, UniProt O15146); assay: biochemical; settings: read-out: % enzyme activity, 1 μM; Run 1, Run 2
T1 sequence (O15146 24-869): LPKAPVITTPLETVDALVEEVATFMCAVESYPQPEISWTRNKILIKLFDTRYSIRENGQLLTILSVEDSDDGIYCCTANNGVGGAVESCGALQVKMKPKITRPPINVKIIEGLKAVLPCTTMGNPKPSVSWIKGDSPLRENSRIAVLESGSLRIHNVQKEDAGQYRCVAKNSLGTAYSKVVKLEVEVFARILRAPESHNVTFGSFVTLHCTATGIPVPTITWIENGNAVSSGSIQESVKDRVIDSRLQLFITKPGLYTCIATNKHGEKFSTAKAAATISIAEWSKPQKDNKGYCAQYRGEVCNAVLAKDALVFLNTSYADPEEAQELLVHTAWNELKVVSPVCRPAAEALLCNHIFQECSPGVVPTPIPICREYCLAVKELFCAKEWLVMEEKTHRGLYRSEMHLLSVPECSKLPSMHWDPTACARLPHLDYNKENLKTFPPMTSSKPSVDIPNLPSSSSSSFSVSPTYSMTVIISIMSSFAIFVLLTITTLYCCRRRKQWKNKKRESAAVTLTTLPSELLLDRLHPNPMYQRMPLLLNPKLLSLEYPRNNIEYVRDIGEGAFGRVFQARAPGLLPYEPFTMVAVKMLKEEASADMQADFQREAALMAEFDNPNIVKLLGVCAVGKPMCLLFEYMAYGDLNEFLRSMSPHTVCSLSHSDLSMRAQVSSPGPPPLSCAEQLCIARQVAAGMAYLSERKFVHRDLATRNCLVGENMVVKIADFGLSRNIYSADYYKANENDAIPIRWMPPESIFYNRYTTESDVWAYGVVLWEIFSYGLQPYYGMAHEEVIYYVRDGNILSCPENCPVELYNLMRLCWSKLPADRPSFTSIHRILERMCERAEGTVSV

[2] = target: T2, MYLK3 (Homo sapiens, UniProt Q32MK0); assay: biochemical; settings: read-out: % enzyme activity, 1 μM; Run 1, Run 2
T2 sequence (Q32MK0 1-819): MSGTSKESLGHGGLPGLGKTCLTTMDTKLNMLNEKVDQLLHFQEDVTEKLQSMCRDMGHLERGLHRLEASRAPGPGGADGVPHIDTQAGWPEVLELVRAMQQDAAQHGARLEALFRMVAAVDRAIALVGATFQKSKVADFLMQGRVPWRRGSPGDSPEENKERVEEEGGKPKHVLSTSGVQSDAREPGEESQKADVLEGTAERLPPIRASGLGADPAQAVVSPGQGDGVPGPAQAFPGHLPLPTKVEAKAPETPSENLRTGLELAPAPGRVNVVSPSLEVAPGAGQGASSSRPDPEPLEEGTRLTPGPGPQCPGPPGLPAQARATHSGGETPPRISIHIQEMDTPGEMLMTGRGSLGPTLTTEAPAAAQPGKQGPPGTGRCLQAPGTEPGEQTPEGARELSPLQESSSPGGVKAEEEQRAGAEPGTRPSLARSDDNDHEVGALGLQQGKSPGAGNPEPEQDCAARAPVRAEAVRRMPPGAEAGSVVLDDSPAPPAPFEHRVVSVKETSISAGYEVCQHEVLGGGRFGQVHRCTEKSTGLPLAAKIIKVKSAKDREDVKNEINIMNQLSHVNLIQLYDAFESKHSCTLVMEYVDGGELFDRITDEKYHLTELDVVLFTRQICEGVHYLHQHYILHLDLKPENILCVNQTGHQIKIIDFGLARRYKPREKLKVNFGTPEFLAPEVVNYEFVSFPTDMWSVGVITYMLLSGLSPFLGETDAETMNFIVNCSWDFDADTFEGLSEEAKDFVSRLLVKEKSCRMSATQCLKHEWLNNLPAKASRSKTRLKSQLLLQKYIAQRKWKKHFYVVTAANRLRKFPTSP

[3] = target: EPHA2 (Homo sapiens, UniProt P29317); settings: 1 μM; Run 1, Run 2
[4] = target: T3, SIK2 (Homo sapiens, UniProt Q9H0K1); assay: 375-member kinase panel; assay type: biochemical; settings: Run 1, Run 2; for % enzyme activity: 1 μM; for remaining activity at 1 µM: read-out: % enzyme activity, 1 μM
T3 construct: purchased Reaction Biology Corporation
T3 sequence (Q9H0K1 whole entry): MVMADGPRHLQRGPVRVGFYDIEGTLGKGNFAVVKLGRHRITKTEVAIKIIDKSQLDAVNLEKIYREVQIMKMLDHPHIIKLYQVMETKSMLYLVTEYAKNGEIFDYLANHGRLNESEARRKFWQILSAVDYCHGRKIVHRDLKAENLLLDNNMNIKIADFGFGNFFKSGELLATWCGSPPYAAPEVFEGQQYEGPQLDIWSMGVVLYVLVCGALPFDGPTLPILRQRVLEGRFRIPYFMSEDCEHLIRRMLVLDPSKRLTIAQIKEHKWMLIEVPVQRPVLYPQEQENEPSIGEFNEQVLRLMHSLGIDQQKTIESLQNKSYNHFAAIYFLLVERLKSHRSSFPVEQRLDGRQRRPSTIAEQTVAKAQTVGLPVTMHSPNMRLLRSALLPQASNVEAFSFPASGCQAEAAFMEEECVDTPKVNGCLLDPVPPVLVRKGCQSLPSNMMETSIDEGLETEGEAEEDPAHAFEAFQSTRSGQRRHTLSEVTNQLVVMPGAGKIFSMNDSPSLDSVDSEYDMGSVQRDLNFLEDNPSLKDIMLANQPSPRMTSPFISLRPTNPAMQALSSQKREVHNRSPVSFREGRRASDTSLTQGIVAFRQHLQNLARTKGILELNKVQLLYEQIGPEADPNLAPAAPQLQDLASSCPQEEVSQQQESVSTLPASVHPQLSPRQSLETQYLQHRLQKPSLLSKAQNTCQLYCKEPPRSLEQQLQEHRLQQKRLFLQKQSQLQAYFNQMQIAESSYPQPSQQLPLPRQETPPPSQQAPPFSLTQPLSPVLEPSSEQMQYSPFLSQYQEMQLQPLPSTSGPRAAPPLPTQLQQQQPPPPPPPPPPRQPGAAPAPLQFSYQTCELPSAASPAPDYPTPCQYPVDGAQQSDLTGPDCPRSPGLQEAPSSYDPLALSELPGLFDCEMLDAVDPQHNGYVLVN

[5] = target: STK25/YSK1 (Homo sapiens, UniProt O00506); settings: 1 μM; Run 1, Run 2
STK25/YSK1, sequence (O00506 whole entry): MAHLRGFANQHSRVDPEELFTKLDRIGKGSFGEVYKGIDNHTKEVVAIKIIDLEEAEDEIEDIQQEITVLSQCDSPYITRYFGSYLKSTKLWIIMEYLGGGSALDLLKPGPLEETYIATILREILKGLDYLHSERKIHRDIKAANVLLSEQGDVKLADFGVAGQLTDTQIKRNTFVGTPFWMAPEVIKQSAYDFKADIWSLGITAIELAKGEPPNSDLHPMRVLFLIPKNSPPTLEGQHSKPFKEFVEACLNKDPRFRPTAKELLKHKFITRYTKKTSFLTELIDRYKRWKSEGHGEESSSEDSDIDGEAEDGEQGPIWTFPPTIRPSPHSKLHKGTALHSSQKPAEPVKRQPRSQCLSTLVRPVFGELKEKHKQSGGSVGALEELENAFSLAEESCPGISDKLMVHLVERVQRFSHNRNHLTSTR

[6] = target: RON/MST1R (Homo sapiens, UniProt Q04912); assay: biochemical; settings: read-out: % enzyme activity, 1 μM; Run 1, Run 2
RON/MST1R, sequence (Q04912 25-1400): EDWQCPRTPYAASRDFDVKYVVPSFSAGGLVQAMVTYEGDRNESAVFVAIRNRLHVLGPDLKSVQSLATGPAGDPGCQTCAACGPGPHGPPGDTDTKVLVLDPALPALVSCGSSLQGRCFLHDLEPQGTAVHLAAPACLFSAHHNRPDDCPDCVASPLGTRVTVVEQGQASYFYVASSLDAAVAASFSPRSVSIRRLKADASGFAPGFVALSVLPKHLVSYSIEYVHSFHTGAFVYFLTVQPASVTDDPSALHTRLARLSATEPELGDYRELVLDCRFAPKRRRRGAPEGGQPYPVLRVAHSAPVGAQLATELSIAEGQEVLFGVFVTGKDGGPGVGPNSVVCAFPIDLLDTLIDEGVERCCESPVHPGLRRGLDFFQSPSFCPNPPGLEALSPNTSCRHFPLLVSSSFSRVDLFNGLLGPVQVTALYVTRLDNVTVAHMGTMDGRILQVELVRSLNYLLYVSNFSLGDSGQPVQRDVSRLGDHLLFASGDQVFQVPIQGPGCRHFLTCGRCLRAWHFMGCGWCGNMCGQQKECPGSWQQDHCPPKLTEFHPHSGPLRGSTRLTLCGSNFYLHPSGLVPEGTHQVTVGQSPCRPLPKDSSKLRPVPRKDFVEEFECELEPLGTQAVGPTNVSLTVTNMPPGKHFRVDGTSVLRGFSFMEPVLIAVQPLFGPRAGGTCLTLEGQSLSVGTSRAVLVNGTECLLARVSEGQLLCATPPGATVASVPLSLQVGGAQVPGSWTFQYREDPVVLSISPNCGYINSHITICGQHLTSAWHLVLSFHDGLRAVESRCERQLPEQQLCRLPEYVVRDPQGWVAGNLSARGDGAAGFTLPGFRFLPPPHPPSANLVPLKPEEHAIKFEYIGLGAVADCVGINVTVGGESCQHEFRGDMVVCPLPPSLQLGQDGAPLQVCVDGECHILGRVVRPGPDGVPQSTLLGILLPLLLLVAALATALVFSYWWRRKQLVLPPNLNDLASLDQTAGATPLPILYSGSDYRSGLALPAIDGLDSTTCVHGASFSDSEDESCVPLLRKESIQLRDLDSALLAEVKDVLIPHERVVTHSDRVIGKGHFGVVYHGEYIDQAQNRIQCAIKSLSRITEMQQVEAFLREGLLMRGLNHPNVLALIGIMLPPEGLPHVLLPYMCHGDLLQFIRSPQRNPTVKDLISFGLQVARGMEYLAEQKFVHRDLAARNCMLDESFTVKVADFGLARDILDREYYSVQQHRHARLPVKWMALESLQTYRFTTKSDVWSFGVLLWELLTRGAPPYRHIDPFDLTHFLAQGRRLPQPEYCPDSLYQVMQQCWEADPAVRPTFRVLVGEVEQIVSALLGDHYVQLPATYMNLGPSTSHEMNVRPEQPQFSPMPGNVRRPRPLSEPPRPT

[7] = target: MLK2/MAP3K10 (Homo sapiens, UniProt Q02779); settings: 1 μM; Run 1, Run 2
MLK2/MAP3K10, sequence (Q02779 whole entry): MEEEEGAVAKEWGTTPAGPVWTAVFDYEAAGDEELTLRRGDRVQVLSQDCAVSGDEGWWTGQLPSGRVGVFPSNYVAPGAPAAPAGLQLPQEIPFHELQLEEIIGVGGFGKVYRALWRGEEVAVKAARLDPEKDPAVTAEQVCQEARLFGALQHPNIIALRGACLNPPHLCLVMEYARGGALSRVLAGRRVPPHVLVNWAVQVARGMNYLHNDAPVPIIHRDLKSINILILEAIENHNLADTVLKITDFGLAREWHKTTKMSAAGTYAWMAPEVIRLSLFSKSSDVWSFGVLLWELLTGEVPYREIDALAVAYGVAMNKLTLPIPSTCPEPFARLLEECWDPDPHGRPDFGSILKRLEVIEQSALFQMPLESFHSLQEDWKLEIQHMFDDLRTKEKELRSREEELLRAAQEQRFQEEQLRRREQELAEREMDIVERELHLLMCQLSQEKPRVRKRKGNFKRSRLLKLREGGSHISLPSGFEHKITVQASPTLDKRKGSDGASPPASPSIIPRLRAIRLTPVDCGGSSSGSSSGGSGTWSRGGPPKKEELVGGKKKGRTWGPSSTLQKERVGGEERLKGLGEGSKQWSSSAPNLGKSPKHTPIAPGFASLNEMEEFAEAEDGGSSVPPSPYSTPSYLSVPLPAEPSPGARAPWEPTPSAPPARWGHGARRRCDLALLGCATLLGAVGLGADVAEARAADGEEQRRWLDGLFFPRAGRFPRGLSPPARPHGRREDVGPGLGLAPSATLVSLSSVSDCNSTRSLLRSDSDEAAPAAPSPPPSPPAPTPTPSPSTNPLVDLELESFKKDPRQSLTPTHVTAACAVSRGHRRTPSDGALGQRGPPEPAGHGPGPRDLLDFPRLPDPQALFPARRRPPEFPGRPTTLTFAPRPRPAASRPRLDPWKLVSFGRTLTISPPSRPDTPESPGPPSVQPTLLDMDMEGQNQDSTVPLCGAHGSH

[8] = target: CDK7/cyclin H (Homo sapiens, UniProt P50613); settings: 1 μM; Run 1, Run 2
[9] = target: T4, ALK4/ACVR1B (Homo sapiens, UniProt P36896); assay: 375-member kinase panel; assay type: biochemical; settings: Run 1, Run 2; for % enzyme activity: 1 μM; for remaining activity at 1 µM: read-out: % enzyme activity, 1 μM
T4 construct: purchased Reaction Biology Corporation
T4 sequence (P36896 24-505): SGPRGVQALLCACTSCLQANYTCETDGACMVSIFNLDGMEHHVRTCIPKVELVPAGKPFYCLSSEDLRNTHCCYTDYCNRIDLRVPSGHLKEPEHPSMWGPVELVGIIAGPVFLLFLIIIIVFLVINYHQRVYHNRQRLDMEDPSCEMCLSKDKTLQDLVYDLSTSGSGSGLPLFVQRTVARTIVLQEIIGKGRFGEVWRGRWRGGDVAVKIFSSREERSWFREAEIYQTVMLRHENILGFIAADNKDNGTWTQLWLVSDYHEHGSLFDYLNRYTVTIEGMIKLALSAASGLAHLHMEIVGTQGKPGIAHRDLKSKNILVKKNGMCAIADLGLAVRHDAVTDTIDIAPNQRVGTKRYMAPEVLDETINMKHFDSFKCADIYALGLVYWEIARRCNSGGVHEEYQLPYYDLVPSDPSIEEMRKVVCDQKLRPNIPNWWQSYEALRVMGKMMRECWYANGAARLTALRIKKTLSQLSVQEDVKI

[10] = target: RIPK3 (Homo sapiens, UniProt Q9Y572); settings: 1 μM; Run 1, Run 2
RIPK3, sequence (Q9Y572 whole entry): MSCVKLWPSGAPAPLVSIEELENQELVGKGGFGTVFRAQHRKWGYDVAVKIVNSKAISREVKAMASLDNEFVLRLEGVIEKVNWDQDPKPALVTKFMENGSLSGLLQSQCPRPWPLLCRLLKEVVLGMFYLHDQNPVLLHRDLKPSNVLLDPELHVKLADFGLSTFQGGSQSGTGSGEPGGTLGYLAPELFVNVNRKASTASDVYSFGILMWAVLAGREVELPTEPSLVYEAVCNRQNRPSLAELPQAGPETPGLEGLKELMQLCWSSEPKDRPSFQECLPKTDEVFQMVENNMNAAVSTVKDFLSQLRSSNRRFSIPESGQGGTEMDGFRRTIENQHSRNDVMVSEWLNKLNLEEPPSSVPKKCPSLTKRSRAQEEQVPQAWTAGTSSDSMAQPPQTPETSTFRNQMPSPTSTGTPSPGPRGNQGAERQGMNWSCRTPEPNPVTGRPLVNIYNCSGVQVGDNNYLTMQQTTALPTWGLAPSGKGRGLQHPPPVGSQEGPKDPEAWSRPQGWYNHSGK

[11] = target: AKT1 (Homo sapiens, UniProt P31749); settings: 1 μM; Run 1, Run 2
AKT1, sequence (P31749 whole entry): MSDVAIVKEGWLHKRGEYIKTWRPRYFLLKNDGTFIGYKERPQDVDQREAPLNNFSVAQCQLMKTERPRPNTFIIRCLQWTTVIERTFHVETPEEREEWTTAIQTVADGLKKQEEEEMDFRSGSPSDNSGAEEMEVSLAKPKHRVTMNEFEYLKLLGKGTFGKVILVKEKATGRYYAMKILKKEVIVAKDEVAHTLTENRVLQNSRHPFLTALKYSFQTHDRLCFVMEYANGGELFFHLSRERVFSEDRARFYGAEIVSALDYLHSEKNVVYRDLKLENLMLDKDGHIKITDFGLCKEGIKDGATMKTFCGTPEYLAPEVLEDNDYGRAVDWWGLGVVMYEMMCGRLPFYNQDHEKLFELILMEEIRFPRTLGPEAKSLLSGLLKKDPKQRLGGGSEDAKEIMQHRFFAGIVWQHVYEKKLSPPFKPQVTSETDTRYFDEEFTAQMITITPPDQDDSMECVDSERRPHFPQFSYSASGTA

[12] = tested on: ALK2/ACVR1

SMILES | remaining activity at 1 µM [1] | remaining activity at 1 µM [2] | % enzyme activity [3] | % enzyme activity [4] | remaining activity at 1 µM [4] | % enzyme activity [5] | remaining activity at 1 µM [6] | % enzyme activity [7] | % enzyme activity [8] | % enzyme activity [9] | remaining activity at 1 µM [9] | % enzyme activity [10] | % enzyme activity [11] | % enzyme activity at 1 μM [12]
COc1cc(-c2cncc(-c3ccc(N4CCN(C)CC4)cc3)c2C)cc(F)c1C(N)=O [Compound 26a, 2-Fluoro-6-methoxy-4-(4-methyl-5-(4-(4-methylpiperazin-1-yl)phenyl)pyridin-3-yl)benzamide] | 92.8% | 99.8% | 97.38% | 30.68% | 32% | 94.98% | 98.7% | 86.29% | 93.27% | 68.79% | 68.8% | 101.40% | 102.39% | 9.92% and 8.63%
COc1cc(-c2cncc(-c3ccc(N4C[C@@H](C)N(C)[C@@H](C)C4)cc3)c2C)cc(F)c1C(N)=O [Compound 26c, 2-Fluoro-6-methoxy-4-(4-methyl-5-(4-((3R,5S)-3,4,5-trimethylpiperazin-1-yl)phenyl)pyridin-3-yl)benzamide] | 92.2% | 100% | 104.56% | 43.50% | 43.9% | 94.06% | 105% | 96.07% | 95.50% | 81.71% | 82.4% | 102.83% | 104.50% | 13.7% and 11.7%
